Laboratory results published in the supplement of paper PMC10307832.

Experiments:
Assay in all cases: relative viability (nuclei count vs DMSO), 5 days (fraction); higher = more cells survive
KIN001-266 + Navitoclax = compound: CCN1CCC(CC1)N2C=C(N=N2)CNC3=CC4=C(C(=CN=C4C(=C3)Cl)C#N)NC5=CC(=C(C=C5)F)Cl [KIN001-266] + CC1(C)CCC(c2ccc(Cl)cc2)=C(CN2CCN(c3ccc(C(=O)NS(=O)(=O)c4ccc(N[C@H](CCN5CCOCC5)CSc5ccccc5)c(S(=O)(=O)C(F)(F)F)c4)cc3)CC2)C1 [Navitoclax] (partner 0.5 µM)
In short: (§1)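 Relative viability was taken as the ratio of nuclei in treated wells to nuclei in vehicle wells. Lung cancer cell lines in 1536-well plates received compounds by pin tool one day after seeding, either one drug alone or a fixed anchor-drug dose plus five library-drug doses (not always all listed) in √10 steps. Nuclei were counted on 4× images after 5 days of treatment, and values are medians of duplicate plates.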

KIN001-266 + Linsitinib = compound: CCN1CCC(CC1)N2C=C(N=N2)CNC3=CC4=C(C(=CN=C4C(=C3)Cl)C#N)NC5=CC(=C(C=C5)F)Cl [KIN001-266] + C[C@]1(O)C[C@@H](c2nc(-c3ccc4ccc(-c5ccccc5)nc4c3)c3c(N)nccn32)C1 [Linsitinib] (partner 1 µM)
In short: as §1

KIN001-266 + Pemetrexed = compound: CCN1CCC(CC1)N2C=C(N=N2)CNC3=CC4=C(C(=CN=C4C(=C3)Cl)C#N)NC5=CC(=C(C=C5)F)Cl [KIN001-266] + Nc1nc2[nH]cc(CCc3ccc(C(=O)N[C@@H](CCC(=O)O)C(=O)O)cc3)c2c(=O)[nH]1 [Pemetrexed] (partner 0.2 µM)
In short: as §1

KIN001-266 + Vorinostat = compound: CCN1CCC(CC1)N2C=C(N=N2)CNC3=CC4=C(C(=CN=C4C(=C3)Cl)C#N)NC5=CC(=C(C=C5)F)Cl [KIN001-266] + O=C(CCCCCCC(=O)Nc1ccccc1)NO [Vorinostat] (partner 1 µM)
In short: as §1

Cell Line | relative viability (KIN001-266 + Navitoclax; first compound 0.08 µM) | relative viability (KIN001-266 + Navitoclax; first compound 0.253 µM) | relative viability (KIN001-266 + Navitoclax; first compound 0.8 µM) | relative viability (KIN001-266 + Navitoclax; first compound 2.53 µM) | relative viability (KIN001-266 + Navitoclax; first compound 8 µM) | relative viability (KIN001-266 + Linsitinib; first compound 0.08 µM) | relative viability (KIN001-266 + Linsitinib; first compound 0.253 µM) | relative viability (KIN001-266 + Linsitinib; first compound 0.8 µM) | relative viability (KIN001-266 + Linsitinib; first compound 2.53 µM) | relative viability (KIN001-266 + Linsitinib; first compound 8 µM) | relative viability (KIN001-266 + Pemetrexed; first compound 0.08 µM) | relative viability (KIN001-266 + Pemetrexed; first compound 0.253 µM) | relative viability (KIN001-266 + Pemetrexed; first compound 0.8 µM) | relative viability (KIN001-266 + Pemetrexed; first compound 2.53 µM) | relative viability (KIN001-266 + Pemetrexed; first compound 8 µM) | relative viability (KIN001-266 + Vorinostat; first compound 0.08 µM) | relative viability (KIN001-266 + Vorinostat; first compound 0.253 µM) | relative viability (KIN001-266 + Vorinostat; first compound 0.8 µM) | relative viability (KIN001-266 + Vorinostat; first compound 2.53 µM) | relative viability (KIN001-266 + Vorinostat; first compound 8 µM)
PC-3 [JPC-3] | 0.813 | 0.869 | 0.759 | 0.738 | 0.803 | 0.99 | 0.934 | 0.941 | 0.958 | 0.896 | 1.08 | 1.09 | 1.14 | 1.1 | 0.965 | 0.856 | 0.887 | 0.801 | 0.987 | 0.847
PC-14 | 0.973 | 1.03 | 1.07 | 0.959 | 0.599 | 0.953 | 1.06 | 1.01 | 0.97 | 0.442 | 0.161 | 0.133 | 0.164 | 0.113 | 0.186 | 0.627 | 0.803 | 0.158 | 0.577 | 0.0881
RERF-LC-KJ | 0.989 | 0.81 | 0.937 | 0.849 | 0.651 | 0.947 | 0.857 | 0.917 | 0.846 | 0.656 | 0.475 | 0.507 | 0.475 | 0.499 | 0.467 | 0.765 | 0.779 | 0.65 | 0.682 | 0.555
SK-LU-1 | 0.677 | 0.465 | 1.11 | 0.839 | 0.512 | 1.29 | 0.937 | 1.14 | 1.07 | 0.639 | 1.03 | 1 | 1.06 | 0.962 | 0.714 | 0.833 | 0.799 | 0.783 | 0.776 | 0.518
SK-MES-1 | 1.25 | 1.17 | 1.11 | 1.04 | 0.858 | 1.17 | 1.08 | 1.01 | 1 | 0.902 | 0.873 | 0.912 | 0.903 | 0.833 | 0.79 | 1.1 | 1.19 | 1.03 | 1.03 | 0.713
SW 1573 | 1.05 | 1.05 | 1.03 | 0.91 | 0.643 | 0.844 | 0.8 | 0.72 | 0.732 | 0.619 | 0.809 | 0.792 | 0.94 | 0.713 | 0.751 | 0.796 | 0.625 | 1.06 | 0.835 | 0.654
UMC-11 | 0.3 | 0.319 | 0.38 | 0.355 | 0.278 | 0.944 | 1.01 | 1.08 | 0.981 | 1.09 | 0.773 | 0.728 | 0.757 | 0.757 | 0.707 | 0.334 | 0.421 | 0.431 | 0.411 | 0.44
